Laboratory results taken from US7858663B1, “Physical and chemical properties of thyroid hormone organic acid addition salts” (Pisgah Laboratories, Inc., priority 2007, dated 2010).

Columns and labels:
Type in all cases: physicochemical
Water solubility = assay: Water solubility
Hygroscopicity = details: compared with sodium or alkali metal salts of the thyroid hormones
[1] = Real-time storage stability under ambient laboratory conditions, HPLC comparison with freshly prepared material
Experimental: (§1) Chromatographic analyses were conducted on a Waters Breeze system equipped with a Waters 1525 Binary HPLC pump, 717plus Autosampler, 2487 Dual I Absorbance Detector and column heater employing a Zorbax Extend-C-18 Column (4.6×250 mm; 5 micron, 80 A). Separation occurred using a linear gradient elution according to the following table wherein eluant A consisted of 0.1% TFA in water and eluant B consisted of 0.1% TFA in acetonitrile.
(§2) Injection samples were prepared in water/1N NaOH/acetonitrile diluent (59:1:40) with analyte peaks detected at 230 nm. Analyte peaks associated with the pamoate salts were assayed against standard solutions prepared from liothyronine and levothryroxine.
The HPLC methodology was applied to freshly prepared samples of T3-pamoate and T4 pamoate and the resulting chromatograms compared with chromatograms of the materials after a four-year real-time storage under ambient laboratory conditions. Further, the pamoate salts were evaluated under forced degradation conditions to evaluate the effects of heat and moisture on the salts' chemical and thermal stability. Blank injections of the sample diluent were obtained at each time interval to determine if minor response differences observed were attributable to the diluent and the chromatographic system (eluant) or to real impurities within either liothyronine pamoate or levothyroxine pamoate. […]

[2] = Forced degradation as suspension in USP water at about 60° C., HPLC
Experimental: as §1, §2
The HPLC methodology was applied to freshly prepared samples of T3-pamoate and T4 pamoate and the resulting chromatograms compared with chromatograms of the materials after a four-year real-time storage under ambient laboratory conditions. Further, the pamoate salts were evaluated under forced degradation conditions to evaluate the effects of heat and moisture on the salts' chemical and thermal stability. Blank injections of the sample diluent were obtained at each time interval to determine if minor response differences observed were attributable to the diluent and the chromatographic system (eluant) or to real impurities within either liothyronine pamoate or levothyroxine pamoate.
To accelerate the potential degradation of levothyroxine pamoate and liothyronine pamoate, samples of each were individually placed in at least an 100 fold excess by weight USP water to form a suspension. The mixture was not degassed and heating was initiated to about 60° C. Multiple samples at each time point were obtained and analyzed from the mixture to assure a representative sample was obtained. FIG. 16 is an HPLC chromatogram of levothyroxine pamoate after subjection to this forced degradation condition for about 98 hours and is indicative of the unexpected stability associated with the organic acid addition salt. […]

Row | Molecule | Water solubility (Water solubility) | Hygroscopicity (Hygroscopicity) | Amount of degradation impurity at retention time 25-26 minutes ([1]; extended storage, about four years at ambient laboratory conditions) | Decomposition under forced degradation (late eluting peak, retention time about 25-26 minutes) ([2]; aqueous environment at 60° C. for 148 hours) | Amount of degradation impurity at retention time 25-26 minutes ([2]; forced degradation, aqueous environment at 60° C. for 148 hours) | HPLC chromatogram after extended storage compared with freshly prepared material ([1]; about four years, ambient laboratory conditions 18-25° C., amber glass jars, detection 230 nm) | HPLC chromatogram after forced degradation compared with freshly prepared material ([2]; suspension in at least 100 fold excess USP water, not degassed, about 60° C., about 98 hours)
1 | N[C@@H](Cc1cc(I)c(Oc2cc(I)c(O)c(I)c2)c(I)c1)C(=O)O [levothyroxine sodium, reference compound] | water-soluble | sufficient hygroscopic characteristics |  |  |  |  | 
2 | N[C@@H](Cc1cc(I)c(Oc2ccc(O)c(I)c2)c(I)c1)C(=O)O.N[C@@H](Cc1cc(I)c(Oc2ccc(O)c(I)c2)c(I)c1)C(=O)O.O=C(O)c1cc2ccccc2c(Cc2c(O)c(C(=O)O)cc3ccccc23)c1O [liothyronine pamoate] |  |  | only a minor amount of the impurity | exhibited some decomposition | significant |  | 
3 | levothyroxine pamoate | insoluble |  |  |  |  | essentially identical | essentially identical
